Marks after values point to notes of the source that are not given here.

The values below come from patent publication US9365489B2, “Nitrooxy alkanoic acids and derivatives thereof in feed for reducing methane emission in ruminants, and/or to improve ruminant performance” (priority 2009, dated 2016).

For one assay, the system named is total bacteria (16SrRNA). Description: In vivo test: qPCR of total bacteria in rumen contents. The settings on record: rumen of sheep; for Total bacteria concentration: control 1.19 × 10^9; for Total bacteria, log10: control 9.03. From the text: (§1) The experimental design consisted of a cross-over design with 2 sheep per treatment in each period. The trial consisted in 3 consecutive periods of: 14 days of adaptation to the dose plus three consecutive days of methane measurements in chambers. This 14 days adaptation phase was established as the period necessary for wash out between different doses assayed in consecutive periods. During the last two days of methane measurements in chambers rumen contents samples were collected two hours after the morning feeding, sub sampled and immediately frozen prior DNA extraction and determination of volatile fatty acids and ammonia nitrogen concentration. Experimental animals were randomly allocated in three sub-groups of 2 animals and were assigned one of the three treatments (control, dose 1 and dose 2). The 3 sub-groups started the adaptation period with a gap of three days so they had the same number of adaptation days prior to methane measurement in the chambers. Each animal was held in cages with constant access to fresh water. The diet provided to the animals consisted of alfalfa hay chopped at 15 to 20 cm and concentrate in a proportion 1:1 at approximately 1.1 times the energy requirements maintenance level (Prieto et al, 1990) plus mineral-vitamin supplement. Fresh matter intake was monitored daily for each animal throughout the trial. The diet was provided to animals in two equal meals at 9.00 h and 14.00 h.
Samples of rumen contents were freeze-dried and thoroughly mixed by physical disruption using a bead beater (Mini-bead Beater; BioSpec Products, Bartlesville, Okla., USA) before DNA extraction, which was performed from approximately 50 mg sample using the QIAamp® DNA Stool Mini Kit (Qiagen Ltd, West Sussex, UK) following the manufacturer's instructions with the modification that a higher temperature (95° C.) was used for lysis incubation. DNA samples were used as templates for quantitative real-time PCR (qPCR) amplification. The numbers of total bacteria, total protozoa and total methanogenic archaea were quantified by Real Time—PCR (qPCR).
Different primer sets were used to amplify 16S rRNA gene-targeted total bacteria (Maeda et al. FEMS Inmunology and Medical Microbiology 39, 81-86, 2003), and protozoa (Sylvester et al. Journal Dairy Science. 88, 2083-2095 2005). […] The amplification efficiency was evaluated for each pair of primers with the following program: 5 min cycle at 95° C., 40 cycles at 95° C. for 15 s, 60° C. for 30 s, 72° C. for 55 s and, 75° C. during 6 s for fluorescent emission measures. The melting curve was built by increasing temperature from 55° C. to 95° C. and reading were taken every 5° C. […] The absolute amount of bacteria, protozoa and methanogenic archaea expressed as the number of DNA copies, was determined by using standards. […]
For orientation: Quantitative PCR measures a nucleic acid by following its amplification.

Assay [1] has as its system methane emissions by sheep. Description: In vivo test for methane inhibition: methane emissions in chambers. The settings on record: for CH4, l/kg BW / CH4, l/day / CH4, l/kg DMI: average of 3 consecutive days; for CH4, l/kg BW: control 0.59; for CH4, l/day: control 25.5; for CH4, l/kg DMI: control 31.5; for reduction of methane emissions: vs control.
Excerpt: as §1
The additive was provided twice a day through the ruminal cannula at the same time as the diet. The corresponding amount to each dose was added into 10 grams of grounded concentrate and wrapped in cellulose paper immediately before it was placed in the rumen. In order to avoid the volatility of the active molecule, both additives were kept in a cold room at 4° C. where the daily process of dispensing it in the cellulose bags was carried out.
The doses were 50 (dose 1) and 500 (dose 2) mg/animal per day. The higher dose was reached after 3 days of gradual increases (50, 200 and 500 mg), so the whole adaptation period was consequently extended for 3 more days.
On day 14 animals were introduced in the chambers for methane measurements for 3 consecutive days. Each chamber measured 1.8 m wide×1.8 m deep×1.5 m tall. Chamber air temperature was maintained between 15 and 20° C. Within each chamber, the animals were individually restrained in the same cages as in the adaptation period. Interruptions occurred daily at 8.30 h, when the chamber floor was cleaned, and the animals were fed. These interruptions had little impact on the daily emissions because fluxes were calculated three times per day and then averaged to derive the 23-hour emission value. Airflow and concentration of methane was measured for the intake and exhaust ducts of each chamber. Air velocity was continuously monitored over the day in each intake and exhaust duct for each chamber. The air stream in each of the 3 ducts (chamber 1, chamber 2 and background) was sub-sampled, and methane concentration was measured continuously using a gas analyzer ADM MGA3000 (Spurling works, Herts, UK). It took 8 min. to sequentially sample the airflow in all intake and exhaust ducts in both chambers (3 min. in chambers 1 and 2, 2 min for background). In summary, the flux of methane for each chamber was calculated for each of the 3-day periods of measurement from the difference of fresh-air input and chamber exhaust methane concentrations and mean air velocities.
Individual methane emissions, VFA profiles, ratio of acetate to propionate, ammonia N concentration, and log10 transformations of concentration of total bacteria, total protozoa and methanogenic archaea were analyzed for the following effects: additive dose, day of measurement, and their interaction using a repeated measures analysis of variance under the cross-over design arrangement of the experiment. The standard error of the mean (SEM) was computed for each analysis. […]

As for `CCOC(=O)CCO[N+](=O)[O-]` [Ethyl-3-nitrooxy propionate], in the assay with total bacteria (16SrRNA) (Dose 1 (50 mg/animal per day)), the Total bacteria concentration is given as 1.43 × 10^9 copy gene numbers/g fresh matter and the “Total bacteria, log10” value worked out at 9.08 log10. Further, in the assay with total bacteria (16SrRNA) (Dose 2 (500 mg/animal per day)), the Total bacteria concentration is listed as 1.63 × 10^9 copy gene numbers/g fresh matter and the “Total bacteria, log10” value is 9.18 log10. Also, in assay [1] (Dose 1 (50 mg/animal per day)), the “CH4, l/kg BW” value is given as 0.51^ab l/kg BW; the “CH4, l/day” value is 22.3^ab l/day; the “CH4, l/kg DMI” value is recorded as 26.0^ab l/kg DMI. Further, in assay [1] (Dose 2 (500 mg/animal per day)), the “CH4, l/kg BW” value is on record as 0.42^b l/kg BW; the “CH4, l/day” value is 18^b l/day; the “CH4, l/kg DMI” value is recorded as 22.2^b l/kg DMI. For the same compound, in assay [1] (dose 1 (50 mg/animal per day)), the “reduction of methane emissions” value stood at 18%. In addition, the “reduction of methane emissions” value in assay [1] (dose 2 (500 mg/animal per day), P<0.05) is recorded as 29%. Also, the “inhibition of methanogenesis (conclusion in words)” value in assay [1] (sheep, 50 and 500 mg/animal per day) was “strong inhibitor of methanogenesis”.
